Reference: patent publication US6737383B1, “Herbicidal oxadiazolidines” (priority 1999, dated 2004)

Tests used:
blackgrass = assay: Test B pre/postemergence blackgrass; format: in vivo, Alopecurus myosuroides; settings: for Blackgrass plant response rating: scale of 0 to 10 where 0 is no effect and 10 is complete control
In short: (§1)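 Test chemicals in a non-phytotoxic solvent mixture with surfactant were sprayed preemergence onto planted seeds and postemergence onto plants 2 to 18 cm tall (1- to 4-leaf stage). After twelve to sixteen days in a greenhouse, injury was visually rated against untreated controls from 0 (no effect) to 10 (complete control).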

purple nutsedge = assay: Test B pre/postemergence purple nutsedge; format: in vivo, Cyperus rotundus; settings: for Nutsedge plant response rating: scale of 0 to 10 where 0 is no effect and 10 is complete control
In short: as §1

duck salad = assay: Test B flood test duck salad; format: in vivo, Heteranthera limosa
In short: (§2)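 Each value is a visual injury score relative to controls, with 10 meaning complete control and 0 no effect. Evaluation took place twelve to sixteen days after the 2-leaf-stage plants were treated and kept in the greenhouse.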

giant foxtail = assay: Test B pre/postemergence giant foxtail; format: in vivo, Setaria faberii; settings: for Giant foxtail plant response rating: scale of 0 to 10 where 0 is no effect and 10 is complete control
In short: as §1

surinam grass = assay: Test B pre/postemergence surinam grass; format: in vivo, Brachiaria decumbens; settings: for B. signalgrass plant response rating: scale of 0 to 10 where 0 is no effect and 10 is complete control
In short: as §1

cocklebur = assay: Test B pre/postemergence cocklebur; format: in vivo, Xanthium strumarium; settings: for Cocklebur plant response rating: scale of 0 to 10 where 0 is no effect and 10 is complete control
In short: as §1

bamyardgrass = assay: Test B flood test barnyardgrass; format: in vivo, Echinochloa crus-galli
In short: as §2

wild oat = assay: Test B pre/postemergence wild oat; format: in vivo, Avena fatua; settings: for Wild oats plant response rating: scale of 0 to 10 where 0 is no effect and 10 is complete control
In short: as §1

pigweed = assay: Test B pre/postemergence pigweed; format: in vivo, Amaranthus retroflexus; settings: for Redroot pigweed plant response rating: scale of 0 to 10 where 0 is no effect and 10 is complete control
In short: as §1

soybean = assay: Test B pre/postemergence soybean; format: in vivo, Glycine max; settings: for Soybean plant response rating: scale of 0 to 10 where 0 is no effect and 10 is complete control
In short: as §1

smallflower flatsedge = assay: Test B flood test smallflower flatsedge; format: in vivo, Cyperus difformis
In short: as §2

sugar beet = assay: Test B pre/postemergence sugar beet; format: in vivo, Beta vulgaris; settings: for Sugarbeets plant response rating: scale of 0 to 10 where 0 is no effect and 10 is complete control
In short: as §1

rape = assay: Test B pre/postemergence rape; format: in vivo, Brassica napus; settings: for Rape plant response rating: scale of 0 to 10 where 0 is no effect and 10 is complete control
In short: as §1

morningglory = assay: Test B pre/postemergence morningglory; format: in vivo, Ipomoea hederacea; settings: for Morningglory plant response rating: scale of 0 to 10 where 0 is no effect and 10 is complete control
In short: as §1

wheat = assay: Test B pre/postemergence wheat; format: in vivo, Triticum aestivum; settings: for Wheat plant response rating: scale of 0 to 10 where 0 is no effect and 10 is complete control
In short: as §1

[1] = Postemergence, Rate 125 g/ha, scale 0 to 10, 0 is no effect, 10 is complete control
[2] = Postemergence, Rate 250 g/ha, scale 0 to 10, 0 is no effect, 10 is complete control
[3] = Preemergence, Rate 62 g/ha, scale 0 to 10 (0 no effect, 10 complete control)
[4] = Rate 500 g/ha, Postemergence, scale 0 to 10, 0 no effect, 10 complete control
[5] = Rate 62 g/ha, flood test species, Pre-emergence, visual evaluation after twelve to sixteen days
[6] = Rate 125 g/ha, under heading Pre-emergence, flood test species, visual evaluation after twelve to sixteen days
[7] = Rate 250 g/ha, Pre-emergence, flood-test species, scale 0 to 10, 0 is no effect, 10 is complete control
[8] = Rate 500 g/ha, Pre-emergence, flood test species, scale 0 to 10 (0 no effect, 10 complete control)

Cc1nnsc1Cn1c(=O)on(C(=O)N(c2ccc(F)cc2)C(C)C)c1=O [Compound 380]
3: Redroot pigweed plant response rating (0 to 10 scale) (pigweed; Preemergence, Rate 125 g/ha) | Redroot pigweed plant response rating (pigweed; Preemergence, Rate 250 g/ha)
1: Giant foxtail plant response rating (giant foxtail; Rate 62 g/ha, Postemergence) | Plant response rating, Soybean (soybean; [1]) | Plant response rating, Soybean (soybean; [2]) | Plant response rating, Soybean (soybean; [4])
6: Plant response rating, Cocklebur (cocklebur; [4]) | Redroot pigweed plant response rating (pigweed; Preemergence, Rate 500 g/ha)
9: Plant response rating, Giant foxtail (giant foxtail; [2]) | Giant foxtail plant response rating (giant foxtail; Preemergence, Rate 250 g/ha) | Plant response rating, Giant foxtail (giant foxtail; [4])
10: Giant foxtail plant response rating (giant foxtail; Preemergence, Rate 500 g/ha) | Plant response rating, Morningglory (morningglory; [4])
5: Plant response rating, Redroot pigweed (pigweed; [4]) | Plant response rating, Morningglory (morningglory; [1]) | Plant response rating, Morningglory (morningglory; [2]) | Morningglory plant response rating (morningglory; Rate 62 g/ha, Postemergence)
0: Plant response rating, Blackgrass (blackgrass; [1]) | Plant response rating, Blackgrass (blackgrass; [2]) | Plant response rating, Blackgrass (blackgrass; [3]) | Blackgrass plant response rating (0 to 10 scale) (blackgrass; Preemergence, Rate 125 g/ha) | Blackgrass plant response rating (blackgrass; Preemergence, Rate 250 g/ha) | Blackgrass plant response rating (blackgrass; Rate 62 g/ha, Postemergence) | Plant response rating, Blackgrass (blackgrass; [4]) | Plant response rating, Nutsedge (purple nutsedge; [1]) | Plant response rating, Nutsedge (purple nutsedge; [2]) | Plant response rating, Nutsedge (purple nutsedge; [3]) | Nutsedge plant response rating (0 to 10 scale) (purple nutsedge; Preemergence, Rate 125 g/ha) | Nutsedge plant response rating (purple nutsedge; Preemergence, Rate 250 g/ha) | Nutsedge plant response rating (purple nutsedge; Preemergence, Rate 500 g/ha) | Nutsedge plant response rating (purple nutsedge; Rate 62 g/ha, Postemergence) | Plant response rating, Nutsedge (purple nutsedge; [4]) | Plant response rating, Ducksalad (0 to 10 scale, 0 is no effect, 10 is complete control) (duck salad; [5]) | Ducksalad plant response rating (0 to 10 scale, 0 is no effect, 10 is complete control) (duck salad; [6]) | Ducksalad plant response rating (duck salad; [7]) | Ducksalad plant response rating (duck salad; [8]) | Plant response rating, B. signalgrass (surinam grass; [1]) | Plant response rating, B. signalgrass (surinam grass; [2]) | Plant response rating, B. signalgrass (surinam grass; [3]) | B. signalgrass plant response rating (0 to 10 scale, 0 is no effect, 10 is complete control) (surinam grass; Preemergence, Rate 125 g/ha) | B. signalgrass plant response rating (surinam grass; Preemergence, Rate 250 g/ha) | B. signalgrass plant response rating (surinam grass; Preemergence, Rate 500 g/ha) | B. signalgrass plant response rating (surinam grass; Rate 62 g/ha, Postemergence) | Plant response rating, B. signalgrass (surinam grass; [4]) | Plant response rating, Cocklebur (cocklebur; [1]) | Plant response rating, Cocklebur (cocklebur; [2]) | Plant response rating, Cocklebur (cocklebur; [3]) | Cocklebur plant response rating (0 to 10 scale) (cocklebur; Preemergence, Rate 125 g/ha) | Cocklebur plant response rating (cocklebur; Preemergence, Rate 250 g/ha) | Cocklebur plant response rating (cocklebur; Rate 62 g/ha, Postemergence) | Plant response rating, Barnyardgrass (0 to 10 scale, 0 is no effect, 10 is complete control) (bamyardgrass; [5]) | Barnyardgrass plant response rating (0 to 10 scale, 0 is no effect, 10 is complete control) (bamyardgrass; [6]) | Barnyardgrass plant response rating (bamyardgrass; [7]) | Barnyardgrass plant response rating (bamyardgrass; [8]) | Plant response rating, Wild oats (wild oat; [1]) | Plant response rating, Wild oats (wild oat; [2]) | Plant response rating, Wild oats (wild oat; [3]) | Wild oats plant response rating (0 to 10 scale) (wild oat; Preemergence, Rate 125 g/ha) | Wild oats plant response rating (wild oat; Preemergence, Rate 250 g/ha) | Wild oats plant response rating (wild oat; Rate 62 g/ha, Postemergence) | Plant response rating, Wild oats (wild oat; [4]) | Plant response rating, Redroot pigweed (pigweed; [1]) | Plant response rating, Redroot pigweed (pigweed; [2]) | Plant response rating, Redroot pigweed (pigweed; [3]) | Redroot pigweed plant response rating (pigweed; Rate 62 g/ha, Postemergence) | Plant response rating, Soybean (soybean; [3]) | Soybean plant response rating (0 to 10 scale) (soybean; Preemergence, Rate 125 g/ha) | Soybean plant response rating (soybean; Preemergence, Rate 250 g/ha) | Soybean plant response rating (soybean; Preemergence, Rate 500 g/ha) | Soybean plant response rating (soybean; Rate 62 g/ha, Postemergence) | Plant response rating, S. Flatsedge (0 to 10 scale, 0 is no effect, 10 is complete control) (smallflower flatsedge; [5]) | S. Flatsedge plant response rating (0 to 10 scale, 0 is no effect, 10 is complete control) (smallflower flatsedge; [6]) | S. Flatsedge plant response rating (smallflower flatsedge; [7]) | S. Flatsedge plant response rating (smallflower flatsedge; [8]) | Plant response rating, Sugarbeets (sugar beet; [1]) | Plant response rating, Sugarbeets (sugar beet; [2]) | Plant response rating, Sugarbeets (sugar beet; [3]) | Sugarbeets plant response rating (0 to 10 scale) (sugar beet; Preemergence, Rate 125 g/ha) | Sugarbeets plant response rating (sugar beet; Preemergence, Rate 250 g/ha) | Sugarbeets plant response rating (sugar beet; Preemergence, Rate 500 g/ha) | Sugarbeets plant response rating (sugar beet; Rate 62 g/ha, Postemergence) | Plant response rating, Sugarbeets (sugar beet; [4]) | Plant response rating, Rape (rape; [1]) | Plant response rating, Rape (rape; [2]) | Plant response rating, Rape (rape; [3]) | Rape plant response rating (0 to 10 scale) (rape; Preemergence, Rate 125 g/ha) | Rape plant response rating (rape; Preemergence, Rate 250 g/ha) | Rape plant response rating (rape; Preemergence, Rate 500 g/ha) | Rape plant response rating (rape; Rate 62 g/ha, Postemergence) | Plant response rating, Rape (rape; [4]) | Plant response rating, Morningglory (morningglory; [3]) | Morningglory plant response rating (0 to 10 scale) (morningglory; Preemergence, Rate 125 g/ha) | Morningglory plant response rating (morningglory; Preemergence, Rate 250 g/ha) | Morningglory plant response rating (morningglory; Preemergence, Rate 500 g/ha) | Plant response rating, Wheat (wheat; [1]) | Plant response rating, Wheat (wheat; [2]) | Plant response rating, Wheat (wheat; [3]) | Wheat plant response rating (0 to 10 scale) (wheat; Preemergence, Rate 125 g/ha) | Wheat plant response rating (wheat; Preemergence, Rate 250 g/ha) | Wheat plant response rating (wheat; Preemergence, Rate 500 g/ha) | Wheat plant response rating (wheat; Rate 62 g/ha, Postemergence) | Plant response rating, Wheat (wheat; [4])
8: Giant foxtail plant response rating (0 to 10 scale) (giant foxtail; Preemergence, Rate 125 g/ha)
2: Blackgrass plant response rating (blackgrass; Preemergence, Rate 500 g/ha) | Plant response rating, Giant foxtail (giant foxtail; [1]) | Plant response rating, Giant foxtail (giant foxtail; [3])
4: Wild oats plant response rating (wild oat; Preemergence, Rate 500 g/ha)
